Laboratory results taken from US20190224192A1, “Stable Pharmaceutical Composition of Vortioxetine Hydrobromide” (Cipla Limited, priority 2016, published 2019).
Where a name gives a salt, the structure may show the parent alone.

What was measured:
[1] = in vitro dissolution of premix compared to beta form; type: physicochemical; conditions: unit assumed
Excerpt: FIG. 2: FIGS. 2a and 2b show dissolution data of a Vortioxetine hydrobromide premix according to the present invention compared to the beta form of Vortioxetine hydrobromide.
In one aspect, the present invention provides a Vortioxetine hydrobromide premix having stability and dissolution properties such that it can be easily formulated into pharmaceutically useful composition.

[2] = cited from earlier work
[3] = solid state form stability (conversion of form on stability); type: physicochemical
Excerpt: WO 2016/062860 relates to a pharmaceutical composition comprising amorphous Vortioxetine hydrobromide, a process for the preparation thereof, use thereof and a method for stabilizing Vortioxetine hydrobromide in a pharmaceutical composition.
However, this technique is not desirable in cases where the melting point of the drug to be converted is very high. For the process to work, it is required that the drug undergoes complete melting, which would lead to complete conversion. The melting point of the drug Vortioxetine is very high, in order of 227-230 degrees. The normal temperatures that are employed in the laboratory is around 180 C, maximizing to 200 C. The HME in this case was attempted with Klucel and Kollidone VA 64. […] This could be attributed to the incomplete melting of the drug and thus incomplete form conversion.

Row | in vitro dissolution ([1]; Time in min 15) | in vitro dissolution ([1]; Time in min 30) | in vitro dissolution ([1]; Time in min 60) | in vitro dissolution ([1]; Time in min 120) | in vitro dissolution ([1]; Time in min 240) | in vitro dissolution ([1]; Time in min 480) | in vitro dissolution ([1]; Time in min 600) | in vitro dissolution ([1]; Time in min 720) | Compound | aqueous solubility [2] | solid state form conversion on stability [3]
1 | 14% | 20% | 29% | 37% | 49% | 61% | 63% | 63% | Br.Cc1ccc(Sc2ccccc2N2CCNCC2)c(C)c1 [Beta Form, Vortioxetine hydrobromide] | about 1.2 mg/ml | –
2 | – | – | – | – | – | – | – | – | Cc1ccc(Sc2ccccc2N2CCNCC2)c(C)c1 [amorphous Vortioxetine hydrobromide, Vortioxetine hydrobromide] | – | gets converted to a more stable crystalline form
